According to ChEMBL document CHEMBL1201862, “PubChem BioAssay data set” (2004):
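Interpolation was linear, between the two tested concentrations surrounding the appropriate level; five concentrations were tested over 48 hours in 96-well plates. GI50 marks 50% less growth.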 Calls of active or inactive are those of the source. No stated cut-off is given here; in the data, active = GI50 up to about 1.1 µM and inactive = higher.

Legend:
Assay in all cases: DTP human tumour cell line panel, 48 h
BT-549 = test system: BT-549
DLD-1 = test system: DLD-1
DMS-273 = test system: DMS-273
KM-20L2 = test system: KM-20L2
LXFL 529 = test system: LXFL 529
SNB-78 = test system: SNB-78
XF498 = test system: XF498
HOP-18 = test system: HOP-18

For CN(C)c1ccc(/C=c2\c3ccccc3n3c2cc(-c2ccccc2)[n+]3C)cc1, the GI50 (BT-549) was 0.0304 µM (active).

O=[N+]([O-])c1ccccc1CSc1nc(O)c2nc[nH]c2n1 was tested, and the GI50 (BT-549) was > 100 µM (inactive).

O=c1oc2ccc3ccccc3c2cc1-c1nc2ccccc2o1 was tested, and the GI50 (BT-549) was 31.3 µM (inactive).

In the case of O=C1C=CC(=NNc2ccccc2)C=CC1=O, the GI50 (BT-549) is reported as 19.4 µM (inactive).

In the case of ClCc1nc2ccccc2[nH]1, the GI50 (BT-549) is reported as 42.8 µM (inactive).

For COc1c2c(c(OC)c3c1c(=O)c1ccccc1n3C)OCO2, the GI50 (BT-549) was 15 µM (inactive).

With COc1cc2c(cc1O)NC(=S)[C@@H]1CCCN1C2=O the GI50 (BT-549) was > 100 µM (inactive).

CCOP(=O)(/C=C\n1ccc(=O)[nH]c1=O)OCC was tested, and the GI50 (BT-549) was > 100 µM (inactive).

CCOC(=O)/C(C(=O)Nc1cccc(C(F)(F)F)c1)=C(/N)N1CCCC1 was tested, and the GI50 (BT-549) was > 100 µM (inactive).

In the case of CCCC(=O)OCOC(=O)N(C)/N=N/c1ccc(C(=O)OCC)cc1, the GI50 (BT-549) is reported as 26.8 µM (inactive).

For CSc1nc2nc(C(O)C(O)C(O)CO)cnc2c(=O)[nH]1 (configuration not stated), the GI50 (DLD-1) was > 100 µM (inactive), the GI50 (DMS-273) was > 100 µM (inactive) and the GI50 (KM-20L2) was > 100 µM (inactive). The GI50 (LXFL 529) was > 100 µM (inactive), the GI50 (SNB-78) was > 100 µM (inactive) and the GI50 (XF498) was > 100 µM (inactive).

For O=C(CCCN1CCC2(CC1)C(=O)NC(=O)N2c1ccccc1)c1ccc(F)cc1, the GI50 (BT-549) was > 100 µM (inactive).

CCOC(=O)Cn1c(=O)n(C)c(=O)c2c1ncn2Cc1ccccc1 was tested, and the GI50 (DLD-1) was > 100 µM (inactive), the GI50 (DMS-273) was > 100 µM (inactive) and the GI50 (KM-20L2) was > 100 µM (inactive). The GI50 (LXFL 529) was > 100 µM (inactive), the GI50 (SNB-78) was > 100 µM (inactive) and the GI50 (XF498) was 98.2 µM (inactive).

Cc1ccc2cccc3c2c1CC1(C3=O)S(=O)(=O)OCCOS1(=O)=O was tested, and the GI50 (BT-549) was > 100 µM (inactive).

In the case of CC(Oc1ccc(OCC2CCCCC2)cc1)C(=O)NCCO (configuration not stated), the GI50 (DLD-1) is reported as > 100 µM (inactive), the GI50 (DMS-273) is reported as > 100 µM (inactive) and the GI50 (HOP-18) is reported as > 100 µM (inactive). The GI50 (LXFL 529) was > 100 µM (inactive) and the GI50 (SNB-78) was > 100 µM (inactive).

With CN(CCNC(=O)c1cc(-c2ccccc2)nc2ccccc12)CCNC(=O)c1cc(-c2ccccc2)nc2ccccc12 the GI50 (BT-549) was > 100 µM (inactive).

For CN1CCN(c2n[nH]c(=O)c3c2nnn3C2CCCCC2)CC1, the GI50 (BT-549) was > 100 µM (inactive).

With CC(C)C1=C(Cc2ccccc2)C(=O)O/C1=C\c1ccc(O)c(Cl)c1 the GI50 (BT-549) was 22.2 µM (inactive).

In the case of N#Cc1ccccc1NC(=O)/C(=N\NC(=O)c1ccncc1)C(c1cnc2ccc([N+](=O)[O-])cc2n1)[N+](=O)[O-] (configuration not stated), the GI50 (BT-549) is reported as > 100 µM (inactive).

With CC12CCC(/C(=N/c3cc(C(F)(F)F)cc(C(F)(F)F)c3)C1=O)C2(C)C (configuration not stated) the GI50 (BT-549) was 32.5 µM (inactive).

O=C1CCN(CCC(F)(F)C(F)(F)C(F)(F)C(F)(F)F)C(=S)N1 was tested, and the GI50 (DMS-273) was > 100 µM (inactive), the GI50 (KM-20L2) was > 100 µM (inactive) and the GI50 (LXFL 529) was > 100 µM (inactive). For the same compound, the GI50 (SNB-78) was > 100 µM (inactive) and the GI50 (XF498) was > 100 µM (inactive).

With COc1ccc(-c2cc(O)c3nc4ccccc4n3c2)cc1 the GI50 (BT-549) was > 100 µM (inactive).

With c1ccc(/C(=N/Nc2ccccn2)c2cccnn2)cc1 the GI50 (BT-549) was 13.9 µM (inactive).

In the case of Cc1[nH]nc2c1C(=O)C=C(N(CCO)c1ccccc1)C2=O, the GI50 (DLD-1) is reported as > 100 µM (inactive), the GI50 (DMS-273) is reported as > 100 µM (inactive) and the GI50 (HOP-18) is reported as > 100 µM (inactive). The GI50 (LXFL 529) was > 100 µM (inactive) and the GI50 (SNB-78) was > 100 µM (inactive).

For Cc1ccc(C(=C2Sc3ccccc3S2)C(=C2Sc3ccccc3S2)c2ccc(C)s2)s1, the GI50 (BT-549) was > 100 µM (inactive).

For O=C(N/N=C\c1cccc2ccccc12)Nc1ccc([N+](=O)[O-])cc1, the GI50 (BT-549) was 20 µM (inactive).

c1ccc([C@@H]2N[C@@]3(CO[Si](c4ccccc4)(c4ccccc4)c4ccccc4)CC[C@H]4CN[C@@H]2[C@H]43)cc1 was tested, and the GI50 (BT-549) was 20.9 µM (inactive).

For COC(=O)c1cc(OC(C)=O)c2c(OC)ccc(OC)c2c1, the GI50 (DLD-1) was > 100 µM (inactive), the GI50 (DMS-273) was > 100 µM (inactive) and the GI50 (KM-20L2) was > 100 µM (inactive). For the same compound, the GI50 (LXFL 529) was > 100 µM (inactive), the GI50 (SNB-78) was > 100 µM (inactive) and the GI50 (XF498) was > 100 µM (inactive).

In the case of Cc1ccc2nc(-c3ccc(N)c(I)c3)sc2c1, the GI50 (BT-549) is reported as 97.7 µM (inactive).

With CC1(C)Oc2ccc3c(=O)cc(-c4ccccc4)oc3c2C1C(=O)O (configuration not stated) the GI50 (BT-549) was > 100 µM (inactive).

O=C1N/C(=N/N=C/c2cccs2)N/C1=C\c1ccco1 was tested, and the GI50 (BT-549) was 70 µM (inactive).

For C=CCCc1cc(OC)ccc1CN(C)C(C)(C)CO, the GI50 (DLD-1) was > 100 µM (inactive), the GI50 (DMS-273) was > 100 µM (inactive) and the GI50 (HOP-18) was > 100 µM (inactive). For the same compound, the GI50 (KM-20L2) was > 100 µM (inactive) and the GI50 (SNB-78) was > 100 µM (inactive).

With Cc1cc2ccccc2n2c1nc1ccc(O)cc12 the GI50 (BT-549) was > 10 µM (inactive).

In the case of CCN(CC)CCNC(=O)c1cccc2nc3ccccc3nc12, the GI50 (DLD-1) is reported as > 26.7 µM (inactive), the GI50 (DMS-273) is reported as 7.26 µM (inactive) and the GI50 (HOP-18) is reported as > 26.4 µM (inactive). For the same compound, the GI50 (KM-20L2) was 13.6 µM (inactive), the GI50 (LXFL 529) was 16.9 µM (inactive) and the GI50 (SNB-78) was 21.4 µM (inactive).

In the case of Cc1cn(Cc2cccc(C3=NCCCN3)c2)c(=O)n(Cc2cccc(C3=NCCCN3)c2)c1=O, the GI50 (BT-549) is reported as > 100 µM (inactive).

In the case of COc1cc2oc3c(c(=O)c2c(O)c1/C=C/C(C)C)CCC(C)(C)Oc1cc(O)ccc1-3, the GI50 (BT-549) is reported as 17.1 µM (inactive).

In the case of O=C(OCC1OC(c2nn[nH]n2)C(OC(=O)c2ccccc2)C1OC(=O)c1ccccc1)c1ccccc1 (configuration not stated), the GI50 (BT-549) is reported as > 100 µM (inactive).

In the case of O=C1C=CC(=O)c2c1ccc1c3ccccc3n(Cc3ccccc3)c21, the GI50 (BT-549) is reported as 20.4 µM (inactive).

O=C(/C=C1\Nc2ccc([N+](=O)[O-])cc2N\C1=C/C(=O)c1ccc(F)cc1)c1ccc(F)cc1 was tested, and the GI50 (BT-549) was 31.1 µM (inactive).

With O=C1CCC2(O)C3Cc4ccc(Oc5nnnn5-c5ccccc5)c5c4C2(CCN3CC2CC2)C1O5 (configuration not stated) the GI50 (BT-549) was 96.2 µM (inactive).

In the case of COC(=O)[C@]12CC[C@H]3CN(C(=O)OCc4ccccc4)[C@H]([C@H]31)[C@H](c1ccco1)N2S(=O)(=O)c1ccc(C)cc1, the GI50 (BT-549) is reported as 15.7 µM (inactive).

For CC(O)(CNS(=O)(=O)c1ccccc1)c1ccccc1 (configuration not stated), the GI50 (BT-549) was > 100 µM (inactive).

For NC1CC(=O)c2csc(Cl)c21 (configuration not stated), the GI50 (BT-549) was 17.7 µM (inactive).

In the case of CCN(CC)CCNc1n[n+]([O-])c2ccccc2[n+]1[O-], the GI50 (BT-549) is reported as 16.4 µM (inactive).

For CCOC(=O)c1c(N2CCOCC2)[nH]c(=O)c(C(c2ccc(N(C)C)cc2)c2c(O)c(C(=O)OCC)c(N3CCOCC3)[nH]c2=O)c1O, the GI50 (BT-549) was > 100 µM (inactive).

CCCN(CCCc1ccccc1)CCc1ccc2[nH]c(=S)[nH]c2c1 was tested, and the GI50 (BT-549) was 68.9 µM (inactive).

O=S(=O)(O)CCCC1S(=O)(=O)OCCOS1(=O)=O was tested, and the GI50 (BT-549) was > 100 µM (inactive).

In the case of FC(F)(F)c1ccc2c(c1)nc(-c1ccccc1)n2CC1CCCN2CCCCC12 (configuration not stated), the GI50 (BT-549) is reported as 16.7 µM (inactive).

For CC(O[Si](C)(C)C(C)(C)C)[C@H](NC(=O)OCC(Cl)(Cl)Cl)C(=O)O (some centres not stated), the GI50 (BT-549) was > 100 µM (inactive).

For O=C1/C(=C/c2ccccc2)CCc2ccccc21, the GI50 (BT-549) was 16.2 µM (inactive).

CC1=NN(C(=O)c2ccc(Cl)cc2)C(=O)/C1=C/c1ccc(Cl)cc1 was tested, and the GI50 (DLD-1) was > 100 µM (inactive), the GI50 (KM-20L2) was > 100 µM (inactive) and the GI50 (LXFL 529) was > 100 µM (inactive). The GI50 (SNB-78) was 40.8 µM (inactive) and the GI50 (XF498) was > 100 µM (inactive).

CC1=NN(C(=O)c2ccccc2O)C(=O)/C1=C/c1cccc([N+](=O)[O-])c1 was tested, and the GI50 (DLD-1) was 0.459 µM (active), the GI50 (KM-20L2) was 15.6 µM (inactive) and the GI50 (LXFL 529) was 0.451 µM (active). The GI50 (SNB-78) was > 100 µM (inactive).

For OCCCCn1cnc2c(O)ncnc21, the GI50 (DLD-1) was > 100 µM (inactive), the GI50 (HOP-18) was > 100 µM (inactive) and the GI50 (KM-20L2) was > 100 µM (inactive). For the same compound, the GI50 (LXFL 529) was > 100 µM (inactive) and the GI50 (SNB-78) was > 100 µM (inactive).

O=[N+]([O-])c1cc(-[n+]2cc([O-])on2)ccc1F was tested, and the GI50 (BT-549) was 16.1 µM (inactive).

CC[C@H](C)C(=O)O[C@H]1CCC=C2C=C[C@H](C)[C@H](CC[C@@H]3C[C@@H](O)CC(=O)O3)[C@H]21 [MEVASTATIN] was tested, and the GI50 (BT-549) was 4.75 µM (inactive).

For COc1cc(C(=O)O)cc2c1[nH]c1ccccc12 [MUKOEIC ACID], the GI50 (DLD-1) was > 25 µM (inactive), the GI50 (DMS-273) was > 25 µM (inactive) and the GI50 (KM-20L2) was > 25 µM (inactive). The GI50 (LXFL 529) was > 25 µM (inactive) and the GI50 (SNB-78) was > 25 µM (inactive).
